Each structure is given as a SMILES string. A value given as a limit tells only on which side of the number the result lay.

The assay has as its target T1, POLγ W748S + E1143G (Homo sapiens, UniProt P54098, E1143G/W748S).
T1 sequence (P54098 1-1239 W748S/E1143G): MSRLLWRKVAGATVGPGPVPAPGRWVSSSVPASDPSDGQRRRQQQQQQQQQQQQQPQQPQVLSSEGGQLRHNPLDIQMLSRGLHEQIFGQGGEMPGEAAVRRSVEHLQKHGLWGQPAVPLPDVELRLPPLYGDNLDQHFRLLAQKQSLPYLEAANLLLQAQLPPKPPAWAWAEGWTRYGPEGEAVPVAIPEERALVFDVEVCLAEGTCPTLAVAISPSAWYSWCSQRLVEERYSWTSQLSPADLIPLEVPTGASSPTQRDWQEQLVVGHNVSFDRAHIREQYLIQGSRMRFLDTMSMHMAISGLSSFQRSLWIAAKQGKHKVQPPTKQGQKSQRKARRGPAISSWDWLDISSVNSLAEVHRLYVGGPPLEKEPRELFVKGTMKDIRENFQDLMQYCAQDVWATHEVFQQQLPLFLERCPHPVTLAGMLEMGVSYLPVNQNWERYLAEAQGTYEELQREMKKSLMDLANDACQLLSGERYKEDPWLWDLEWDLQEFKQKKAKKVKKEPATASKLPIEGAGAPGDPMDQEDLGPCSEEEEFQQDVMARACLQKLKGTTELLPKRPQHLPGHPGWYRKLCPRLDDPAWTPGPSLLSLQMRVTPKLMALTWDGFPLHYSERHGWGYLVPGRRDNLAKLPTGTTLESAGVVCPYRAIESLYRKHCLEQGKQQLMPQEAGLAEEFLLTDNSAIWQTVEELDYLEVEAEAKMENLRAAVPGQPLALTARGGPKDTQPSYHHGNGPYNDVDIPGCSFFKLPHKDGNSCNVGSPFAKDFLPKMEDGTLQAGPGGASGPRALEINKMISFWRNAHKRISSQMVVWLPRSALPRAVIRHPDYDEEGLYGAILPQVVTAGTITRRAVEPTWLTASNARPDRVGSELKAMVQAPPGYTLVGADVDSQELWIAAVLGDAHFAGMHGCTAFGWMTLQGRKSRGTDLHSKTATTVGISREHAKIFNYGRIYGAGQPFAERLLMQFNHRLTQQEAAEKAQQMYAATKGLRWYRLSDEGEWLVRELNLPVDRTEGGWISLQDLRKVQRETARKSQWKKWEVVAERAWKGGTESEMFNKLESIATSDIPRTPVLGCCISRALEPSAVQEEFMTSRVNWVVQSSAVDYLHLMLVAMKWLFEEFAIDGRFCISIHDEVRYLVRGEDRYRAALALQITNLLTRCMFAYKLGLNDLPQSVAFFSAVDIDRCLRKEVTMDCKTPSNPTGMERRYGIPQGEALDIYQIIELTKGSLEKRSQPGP
T1 sequence (Q9UHN1 1-485 partner): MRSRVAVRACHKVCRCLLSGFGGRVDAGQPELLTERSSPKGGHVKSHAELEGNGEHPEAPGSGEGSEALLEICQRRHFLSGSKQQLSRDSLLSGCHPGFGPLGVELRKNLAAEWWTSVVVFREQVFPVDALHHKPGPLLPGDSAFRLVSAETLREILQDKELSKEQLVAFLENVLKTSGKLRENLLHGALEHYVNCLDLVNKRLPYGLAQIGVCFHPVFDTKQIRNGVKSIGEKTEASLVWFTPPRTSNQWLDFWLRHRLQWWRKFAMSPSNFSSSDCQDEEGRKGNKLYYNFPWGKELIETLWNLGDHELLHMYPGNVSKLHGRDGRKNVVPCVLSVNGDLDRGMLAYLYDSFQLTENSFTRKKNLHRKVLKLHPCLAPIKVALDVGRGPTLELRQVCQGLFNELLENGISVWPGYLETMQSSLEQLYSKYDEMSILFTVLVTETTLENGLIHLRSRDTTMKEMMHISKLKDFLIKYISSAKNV
The assay can be described thus: DNA polymerization assay, W748S + E1143G mutant. The conditions noted are these: stimulation of polymerase activity, primed M13mp18 ssDNA, 37° C. 2 hours. It counts as biochemical.
Consider `Cc1cc(S(=O)(=O)Nc2cccc(-c3ncc(CO)s3)c2)c(C)cc1Cl` [Example 89, 4-chloro-N-(3-(5-(hydroxymethyl)thiazol-2-yl)phenyl)-2,5-dimethylbenzenesulfonamide], for which the concentration at half-maximal activity (AC50) was 800 nM.
Under `Cc1cc(S(=O)(=O)Nc2csc(-c3ccnn3C)n2)c(C)cc1Cl` [Example 182, 4-chloro-2,5-dimethyl-N-(2-(1-methyl-1H-pyrazol-5-yl)thiazol-4-yl)benzenesulfonamide] stands 1000 nM; under `Cc1cc(S(=O)(=O)Nc2cccc(-c3ncc(C4CC4)s3)c2)c(C)cc1Cl` [Example 76, 4-chloro-N-(3-(5-cyclopropylthiazol-2-yl)phenyl)-2,5-dimethylbenzenesulfonamide], 6000 nM.
Under `Cc1cc(S(=O)(=O)Nc2csc(-c3ccccc3)n2)c(C)cc1Cl` [Example 81, 4-chloro-2,5-dimethyl-N-(2-phenylthiazol-4-yl)benzenesulfonamide] stands 700 nM.
Regarding `Cc1cc(S(=O)(=O)Nc2cccc(-c3ncc(CN(C)C)s3)c2)c(C)cc1Cl` [Example 87, 4-chloro-N-(3-(5-((dimethylamino)methyl)thiazol-2-yl)phenyl)-2,5-dimethylbenzenesulfonamide], the AC50 came to 5000 nM.
With `Cc1csc(-c2ccccc2NS(=O)(=O)c2cc(C)c(Cl)cc2C)n1` [Example 80, 4-chloro-2,5-dimethyl-N-(2-(4-methylthiazol-2-yl)phenyl)benzenesulfonamide], the half-maximal activity concentration (AC50) was greater than 100000 nM.
